# Test results from US8455251B2, “Method for isolating and culturing adult stem cells derived from human amniotic epithelium” (RNL Bio Co., Ltd., priority 2007, dated 2013).
# Assays:
# Type in all cases: cell-based, human
# [1] = test system: amniotic epithelial cells; assay: Isolation of amniotic epithelial cells from amniotic tissue, living cells counted by trypan blue
# Procedure: 5 g of amniotic tissue was weighed and washed with HBSS. For stable isolation of amniotic epithelial cells, the washing process was carried out using HBSS buffer more similar to the constituents of the human body rather than using general PBS. The washed amniotic tissue was transferred into a 50-ml tube, and 10 mM DTT was added thereto. After treatment with DTT for 30 minutes, the supernatant was discarded, the amniotic tissue was finely cut, and the finely cut amniotic tissue was treated with fresh 0.05% trypsin-EDTA at 37° C. for 42 minutes under stirring, thus chemically degrading the tissue. The chemically degraded tissue was vortexed for 1 minute, and then it was primarily filtered through a 1-mm mesh and secondarily filtered through a 100-μm mesh, thus removing non-degraded tissue. The filtered tissue was centrifuged at 1800 rpm for 10 minutes. The single cell pellets at the bottom were well suspended, thus obtaining amniotic epithelial cells. Living cells were visually counted under a microscope using a hemocytometer according to trypan blue dye method and, as a result, the number of cells counted immediately after isolation was 3.72×10^7 cells (FIG. 1 (A)). On the other hand, in the case in which amniotic epithelial cells were isolated from amniotic tissue by treatment with trypsin alone without the addition of DTT, the number of cells counted immediately after isolation was 9.25×10^5 cells (FIG. 1 (B)).
# [2] = test system: amniotic epithelial cell-derived adult stem cells; assay: Culture and subculture of amniotic epithelial cells in the presence of ROCK inhibitor; conditions: 10 μM ROCK inhibitor added 4 days after isolation of the amniotic epithelial cells, FIG. 2
# Procedure: The obtained amniotic epithelial cells were cultured in a medium (Gibco) consisting of a 1:1 mixture of DMEM (Dulbecco modified Eagle medium) and F-12 (nutrient mixture) to which FBS, ascorbic acid, epidermal growth factor, insulin, an antibiotic and 10 μM of ROCK inhibitor Y-27632 have been added at the concentrations shown in Table 2 below. After 3 days of culture, the adult stem cells derived from the cultured amniotic epithelial cells were washed with HBSS buffer, and then incubated with Tryple-express (Gibco) or 0.25% trypsin-EDTA at 37° C. for 10 minutes. An FBS-containing medium was added thereto to inactivate trypsin, and then 5×10^6 stem cells derived from the amniotic epithelial cells were obtained and seeded into a fresh medium and subcultured. For each reseeding for subcultures, 10 μM of ROCK inhibitor was added to each fresh medium.
# [3] = test system: amniotic epithelial cell-derived adult stem cells; assay: Proliferation of stem cells at various concentrations of ROCK inhibitor; design: proliferation of the cells: dose or concentration left out as unconfirmed
# Procedure: In order to examine the proliferation potential of amniotic epithelial cell-derived adult stem cells at various concentrations of ROCK inhibitor, the amniotic epithelial cells obtained in Example 1 were subcultured in DMEM/F-12 media containing FBS, ascorbic acid, epidermal growth factor, insulin and an antibiotic, to which ROCK inhibitor Y-27632 has been added at various concentrations of 100 μM, 1 μM, 100 nM and 10 nM. After 1 day and 4 days of the subculture, the optimum ROCK inhibitor Y-27632 concentration for the culture of the adult stem cells was examined.
# [4] = test system: amniotic epithelial cell-derived adult stem cells; assay: Effect of the addition of ROCK inhibitor on proliferation of stem cells (Comparative Example 1); conditions: 10 μM; observed 1, 2 and 3 days after seeding
# Procedure: In order to examine the effect of ROCK inhibitor, 4×10^6 amniotic epithelial cells obtained in Example 1 were subcultured in a DMEM/F-12 medium containing FBS, ascorbic acid, epidermal growth factor, insulin and an antibiotic for 4 days. Then, the cells were seeded into each of a medium containing 10 μM of the ROCK inhibitor Y-27632 and a medium containing no ROCK inhibitor and were observed 1 day, 2 days and 3 days after seeding.
# [5] = test system: amniotic epithelial cell-derived adult stem cells; assay: Proliferation of stem cells according to ROCK inhibitor treatment period
# Procedure: In order to further improve the proliferation ability of the amniotic epithelial cells obtained in Example 1, the method used in the embryonic stem cell study (Watanabe et al., Nature Biotechnology, 25:681, 2007) and the method of adding ROCK inhibitor during the culture were compared. In other words, the culture in which 10 μM of ROCK inhibitor was added only before reseeding was compared with the culture in which the ROCK inhibitor was added even after reseeding.
molecule,measurement,setting,value
"O[C@H](CS)[C@H](O)CS (racemic) [DTT, dithiothreitol]",number of cells counted immediately after isolation,"[1]; 5 g amniotic tissue, 10 mM DTT 30 minutes, then 0.05% trypsin-EDTA 37° C. 42 minutes",3.72×10^7 cells
same,"number of isolated amniotic epithelial cells and number of cells after culture, versus trypsin alone","[1]; DTT and trypsin (FIG. 1 A, C) versus trypsin alone (B, D)",significantly larger
"CC(N)C1CCC(C(=O)Nc2ccncc2)CC1 (stereo not drawn) [ROCK inhibitor, Y-27632]",number of the adult stem cells,[2],rapidly increased
same,degree of proliferation,"[3]; 10 nM, after 1 day and 4 days of subculture, versus untreated control",did not greatly differ from that in the control
same,cell morphology / differentiation,"[3]; 100 μM, after 1 day and 4 days of subculture",a cell morphology change or cell differentiation appeared
same,proliferation of the cells,[3]; after 1 day and 4 days of subculture,significantly increased
same,most preferred concentration for the culture of the adult stem cells,"[3]; tested at 100 μM, 1 μM, 100 nM and 10 nM",about 10 μM
same,apoptosis of the amniotic epithelial cells,[4],inhibited
same,proliferation of adult stem cells,[4],significantly increased
same,proliferation ability of the adult stem cells,"[5]; case (A): 10 μM ROCK inhibitor only before reseeding, cultured 1 day",clearly increased compared to the control
same,proliferation ability of adult stem cells,"[5]; case (B): ROCK inhibitor continuously added during reseeding and culture, 1 day",superior compared to the case (A)
"trypsin: 0.05% trypsin-EDTA (Gibco) used to isolate single cells from amniotic tissue (protein, UniProt P00761 9-231, looked up, with EDTA, 0.05% trypsin-EDTA (Gibco) used to isolate single cells from amniotic tissue) Trypsin: IVGGYTCAANSIPYQVSLNSGSHFCGGSLINSQWVVSAAHCYKSRIQVRLGEHNIDVLEGNEQFINAAKIITHPNFNGNTLDNDIMLIKLSSPATLNSRVATVSLPRSCAAAGTECLISGWGNTKSSGSSYPSLLQCLKAPVLSDSSCKSSYPGQITGNMICVGFLEGGKDSCQGDSGGPVVCNGQLQGIVSWGYGCAQKNKPGVYTKVCNYVNWIQQTIAAN",number of cells counted immediately after isolation,[1]; treatment with trypsin alone without the addition of DTT,9.25×10^5 cells
